Laboratory results published in BigSolDB 2.1.

Settings: in water

NCCS(=O)(=O)O
solubility (mole fraction) (278.05 K): 0.00796 | solubility (mole fraction) (281.25 K): 0.00932 | solubility (mole fraction) (288.75 K): 0.0119 | solubility (mole fraction) (289.85 K): 0.0128 | solubility (mole fraction) (298.15 K): 0.017 | solubility (mole fraction) (305.35 K): 0.0203 | solubility (mole fraction) (308.25 K): 0.0213 | solubility (mole fraction) (310.95 K): 0.0233 | solubility (mole fraction) (314.85 K): 0.0261 | solubility (mole fraction) (318.35 K): 0.0291 | solubility (mole fraction) (321.55 K): 0.0321 | solubility (mole fraction) (331.75 K): 0.0403 | solubility (mole fraction) (340.95 K): 0.0477 | solubility (mole fraction) (345.15 K): 0.0526 | solubility (mole fraction) (350.25 K): 0.0585 | solubility (mole fraction) (353.55 K): 0.0646
